Data as given in patent US12252488B2 (Nimbus Saturn, Inc., priority 2021, dated 2025).
pIC50: −log10 of the molar value.

These compounds were tested against T1, HPK1 (Homo sapiens, UniProt Q92918) (assay: HPK1 biochemical enzyme assay (microfluidic mobility shift assay)). Settings: 1000 uM (1 mM) ATP; Caliper mobility shift; 1.5 nM HPK1; 30 min preincubation; read-out: HPK1 1000UMATP caliper IC50.
T1 construct: purchased Invitrogen
Method in brief: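 Microfluidic mobility-shift readout with 1.5 nM HPK1 in pH 7.4 buffer; compounds (ten-point curves, top 3 μM final) preincubated 30 min with enzyme/substrate. Reaction started with 1 mM ATP and 1 μM substrate plus 5 mM MgCl2, run 60 min at RT. IC50 values binned into activity classes.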

T1 sequence (Q92918 whole entry): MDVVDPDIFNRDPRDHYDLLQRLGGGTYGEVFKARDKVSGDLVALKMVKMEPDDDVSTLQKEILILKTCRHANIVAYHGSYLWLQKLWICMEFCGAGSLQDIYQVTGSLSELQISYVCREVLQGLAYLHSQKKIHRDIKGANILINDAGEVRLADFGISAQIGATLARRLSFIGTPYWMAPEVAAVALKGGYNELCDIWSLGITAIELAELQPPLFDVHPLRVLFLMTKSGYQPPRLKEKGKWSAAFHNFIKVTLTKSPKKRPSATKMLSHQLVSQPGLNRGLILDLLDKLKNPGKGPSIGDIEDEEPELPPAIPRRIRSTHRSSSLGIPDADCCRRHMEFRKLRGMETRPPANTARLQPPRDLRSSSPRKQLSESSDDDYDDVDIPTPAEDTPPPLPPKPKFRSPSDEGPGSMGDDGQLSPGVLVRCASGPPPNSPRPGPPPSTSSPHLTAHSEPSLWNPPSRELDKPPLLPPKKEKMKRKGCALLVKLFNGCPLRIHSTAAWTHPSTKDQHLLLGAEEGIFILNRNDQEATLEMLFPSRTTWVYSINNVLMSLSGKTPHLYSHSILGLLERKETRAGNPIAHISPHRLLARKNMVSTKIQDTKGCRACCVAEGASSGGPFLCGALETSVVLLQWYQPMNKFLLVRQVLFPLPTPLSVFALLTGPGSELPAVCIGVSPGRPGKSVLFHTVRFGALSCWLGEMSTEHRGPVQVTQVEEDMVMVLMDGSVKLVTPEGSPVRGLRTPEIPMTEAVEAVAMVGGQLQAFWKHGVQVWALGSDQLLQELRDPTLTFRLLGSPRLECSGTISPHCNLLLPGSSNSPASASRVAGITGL

`COc1cc(-c2cc(Nc3ccc(N4CCC(O)CC4)cn3)c3c(=O)[nH]ccc3n2)c(F)c(F)c1C(=O)N1CCCCC1` [I-241, 2-[2,3-difluoro-5-methoxy-4-(piperidine-1-carbonyl)phenyl]-4-[[5-(4-hydroxy-1-piperidyl)-2-pyridyl]amino]-6H-1,6-naphthyridin-5-one] and `O=C(c1cc(F)c(-c2cc(Nc3ccc(N4CCC(O)CC4)cn3)c3c(=O)[nH]ccc3n2)cc1C1CC1)N1CCCCC1` [I-270, 2-[5-cyclopropyl-2-fluoro-4-(piperidine-1-carbonyl)phenyl]-4-[[5-(4-hydroxy-1-piperidyl)-2-pyridyl]amino]-6H-naphthyridin-5-one] cannot be ordered by pIC50: 6.00 to 7.00 for the first, ≥ 7.00 for the second.

`COc1cc(-c2cc(Nc3ccc(C#N)cn3)c3c(=O)[nH]ccc3n2)c(F)cc1C(=O)N1CCCCC1` [I-242, 6-[[2-[2-fluoro-5-methoxy-4-(piperidine-1-carbonyl)phenyl]-5-oxo-6H-1,6-naphthyridin-4-yl]amino] pyridine-3-carbonitrile] and `COc1cc(-c2cc(Nc3ccc(C4CCNCC4)cn3)c3c(=O)[nH]ccc3n2)c(F)cc1C(=O)N1CCCCC1` [I-245, 2-[2-fluoro-5-methoxy-4-(piperidine-1-carbonyl)phenyl]-4-[[5-(4-piperidyl)-2-pyridyl]amino]-6H-1,6-naphthyridin-5-one] cannot be ordered by pIC50: 6.00 to 7.00 for the first, ≥ 7.00 for the second.

`O=c1[nH]ccc2nc(-c3cc(C4CCCN4)ccc3F)cc(Nc3ccc(N4CCC(O)CC4)cn3)c12` (stereo not drawn) [I-243, 2-(2-fluoro-5-pyrrolidin-2-yl-phenyl)-4-[[5-(4-hydroxy-1-piperidyl)-2-pyridyl]amino]-6H-1,6-naphthyridin-5-one] and `CC(=O)N1CCCC1c1ccc(F)c(-c2cc(Nc3ccc(N4CCC(O)CC4)cn3)c3c(=O)[nH]ccc3n2)c1` (stereo not drawn) [I-248, 2-[5-(1-acetyl-pyrrolidin-2-yl)-2-fluoro-phenyl]-4-[[5-(4-hydroxy-1-piperidyl)-2-pyridyl]amino]-6H-1,6-naphthyridin-5-one] cannot be ordered by pIC50: 6.00 to 7.00 for the first, ≥ 7.00 for the second.

`CN(C)C1CCc2cc(F)c(-c3cc(Nc4ccc(N5CCC(O)CC5)cn4)c4c(=O)[nH]ccc4n3)cc21` (stereo not drawn) [I-244, 2-[3-(dimethyl-amino)-6-fluoro-indan-5-yl]-4-[[5-(4-hydroxy-1-piperidyl)-2-pyridyl]amino]-6H-1,6-naphthyridin-5-one] and `O=c1[nH]ccc2nc(-c3cc4c(cc3F)CCC4N3CCCCC3)cc(Nc3ccc(N4CCC(O)CC4)cn3)c12` (stereo not drawn) [I-249, 2-[6-fluoro-3-(1-piperidyl)indan-5-yl]-4-[[5-(4-hydroxy-1-piperidyl)-2-pyridyl]amino]-6H-naphthyridin-5-one] cannot be ordered by pIC50: ≥ 7.00 for the first, ≥ 7.00 for the second.

`CCC1(C(=O)N(C)c2ccc(-c3cc(Nc4ccc(N5CCNCC5)cn4)c4c(=O)[nH]ccc4n3)c(F)c2)CCC1` [I-247, 1-ethyl-N-[3-fluoro-4-[5-oxo-4-[(5-piperazin-1-yl-2-pyridyl)amino]-6H-1,6-naphthyridin-2-yl]phenyl]-N-methyl-cyclobutane-carboxamide] and `O=C(c1ccc(-c2cc(Nc3ccc(N4CCNCC4)cn3)c3c(=O)[nH]ccc3n2)c(F)c1)N1CC2CCC1CC2` [I-264, 2-[4-(3-azabicyclo [2.2.2]octane-3-carbonyl)-2-fluoro-phenyl]-4-[(5-piperazin-1-yl-2-pyridyl)amino]-6H-1,6-naphthyridin-5-one] cannot be ordered by pIC50: ≥ 7.00 for the first, ≥ 7.00 for the second.

Going from `O=c1[nH]ccc2nc(-c3cc(CN4CC5(COC5)C4)ccc3F)cc(Nc3ccc(N4CCC(O)CC4)cn3)c12` [I-250] to `O=c1[nH]ccc2nc(-c3cc(CN4CC5(CCOC5)C4)ccc3F)cc(Nc3ccc(N4CCC(O)CC4)cn3)c12` [I-256, 2-[2-fluoro-5-(6-oxa-2-azaspiro [3.4]octan-2-ylmethyl)phenyl]-4-[[5-(4-hydroxy-1-piperidyl)-2-pyridyl]amino]-6H-1,6-naphthyridin-5-one], the pIC50 falls from ≥ 7.00 to < 6.00. The first is the more potent here.

`COc1cc(-c2cc(Nc3ccc(N4CCC(O)CC4)cn3)c3c(=O)[nH]ccc3n2)c(F)cc1C(=O)N1CC2C(C1)C2(F)F` (stereo not drawn) [I-251, 2-[4-(6,6-difluoro-3-azabicyclo [3.1.0]hexane-3-carbonyl)-2-fluoro-5-methoxy-phenyl]-4-[[5-(4-hydroxy-1-piperidyl)-2-pyridyl]amino]-6H-1,6-naphthyridin-5-one] and `CN1CCN(c2ccc(Nc3cc(-c4ccc(C(=O)N5CC6C(C5)C6(F)F)cc4F)nc4cc[nH]c(=O)c34)nc2)CC1` (stereo not drawn) [I-279, 2-[4-(6,6-difluoro-3-azabicyclo [3.1.0]hexane-3-carbonyl)-2-fluoro-phenyl]-4-[[5-(4-methyl-piperazin-1-yl)-2-pyridyl]amino]-6H-1,6-naphthyridin-5-one] cannot be ordered by pIC50: ≥ 7.00 for the first, ≥ 7.00 for the second.

`O=c1[nH]ccc2nc(-c3cc(CN4CC5(CCCO5)C4)ccc3F)cc(Nc3ccc(N4CCC(O)CC4)cn3)c12` [I-255, 2-[2-fluoro-5-(5-oxa-2-azaspiro [3.4]octan-2-ylmethyl)phenyl]-4-[[5-(4-hydroxy-1-piperidyl)-2-pyridyl]amino]-6H-1,6-naphthyridin-5-one] and `O=c1[nH]ccc2nc(-c3ccc(C4CCCO4)cc3F)cc(Nc3ccc(N4CCC(O)CC4)cn3)c12` (stereo not drawn) [I-276, 2-(2-fluoro-4-THF-2-yl-phenyl)-4-[[5-(4-hydroxy-1-piperidyl)-2-pyridyl]amino]-6H-1,6-naphthyridin-5-one] cannot be ordered by pIC50: < 6.00 for the first, < 6.00 for the second.

First: O=c1[nH]ccc2nc(-c3ccc(OCc4ccncc4)cc3F)cc(Nc3cc(C4CCOC4)n[nH]3)c12 (stereo not drawn) [I-257, 2-[2-fluoro-4-(4-pyridyl-methoxy)phenyl]-4-[(3-THF-3-yl-1H-pyrazol-5-yl)amino]-6H-1,6-naphthyridin-5-one]
Second: O=c1[nH]ccc2nc(-c3c(F)ccc4c3CCNC4)cc(Nc3cc(C4CCOC4)n[nH]3)c12 (stereo not drawn) [I-265, 2-(6-fluoro-1,2,3,4-tetrahydro-isoquinolin-5-yl)-4-[(3-THF-3-yl-1H-pyrazol-5-yl)amino]-6H-1,6-naphthyridin-5-one]
The pIC50 of the first is lower: < 6.00 for the first, ≥ 7.00 for the second.

`O=c1[nH]ccc2nc(-c3cc4c(cc3F)CCC4N3CC4(CCC4)C3)cc(Nc3ccc(N4CCC(O)CC4)cn3)c12` (stereo not drawn) [I-258, 2-[3-(2-azaspiro [3.3]heptan-2-yl)-6-fluoro-indan-5-yl]-4-[[5-(4-hydroxy-1-piperidyl)-2-pyridyl]amino]-6H-1,6-naphthyridin-5-one] and `O=c1[nH]ccc2nc(-c3cc4c(cc3F)CCC4N3CC4(CCOC4)C3)cc(Nc3ccc(N4CCC(O)CC4)cn3)c12` (stereo not drawn) [I-260, 2-[6-fluoro-3-(6-oxa-2-azaspiro [3.4]octan-2-yl)indan-5-yl]-4-[[5-(4-hydroxy-1-piperidyl)-2-pyridyl]amino]-6H-1,6-naphthyridin-5-one] fall in the same range of pIC50: 6.00 to 7.00 for the first, 6.00 to 7.00 for the second.

Going from `O=c1[nH]ccc2nc(-c3cc4c(cc3F)C(N3CCOCC3)CC4)cc(Nc3ccc(N4CCC(O)CC4)cn3)c12` (stereo not drawn) [I-259, 2-(6-fluoro-1-morphoino-indan-5-y)-4-[[5-(4-hydroxy-1-piperidy)-2-pyridy]amino]-6H-1,6-naphthyridin-5-one] to `CN1CCc2c(ccc(F)c2-c2cc(Nc3ccc(N4CCC(O)CC4)cn3)c3c(=O)[nH]ccc3n2)C1` [I-268, 2-(6-fluoro-2-methyl-3,4-dihydro-1H-isoquinolin-5-yl)-4-[[5-(4-hydroxy-1-piperidyl)-2-pyridyl]amino]-6H-1,6-naphthyridin-5-one], the pIC50 falls from ≥ 7.00 to < 6.00.

First: CNC(C)(c1ccc(F)c(-c2cc(Nc3ccc(N4CCC(O)CC4)cn3)c3c(=O)[nH]ccc3n2)c1)C(F)(F)F (stereo not drawn) [I-263, 2-[2-fluoro-5-[2,2,2-trifluoro-1-methyl-1-(methyl-amino)ethyl]phenyl]-4-[[5-(4-hydroxy-1-piperidyl)-2-pyridyl]amino]-6H-1,6-naphthyridin-5-one]
Second: Cc1cnccc1-c1cc(Nc2ccc(N3CCC(O)CC3)cn2)c2c(=O)[nH]ccc2n1 [I-280, 4-[[5-(4-hydroxy-1-piperidyl)-2-pyridyl]amino]-2-(3-methyl-4-pyridyl)-6H-1,6-naphthyridin-5-one]
The pIC50 of the first is higher: ≥ 7.00 for the first, < 6.00 for the second.

`Cn1ccnc1N1CCN(c2cc(Nc3ccc(N4CCC(O)CC4)cn3)c3c(=O)[nH]ccc3n2)CC1` [I-271, 4-[[5-(4-hydroxy-1-piperidyl)-2-pyridyl]amino]-2-[4-(1-methyl-imidazol-2-yl)piperazin-1-yl]-6H-1,6-naphthyridin-5-one] and `Cc1c[nH]nc1-c1cc(Nc2ccc(N3CCC(O)CC3)cn2)c2c(=O)[nH]ccc2n1` [I-283, 4-[[5-(4-hydroxy-1-piperidyl)-2-pyridyl]amino]-2-(4-methyl-1H-pyrazol-3-yl)-6H-1,6-naphthyridin-5-one] cannot be ordered by pIC50: ≥ 7.00 for the first, ≥ 7.00 for the second.

`CN1CCN(c2ccc(Nc3cc(-c4ccc(C(=O)N5CC6CCC5CC6)cc4F)nc4cc[nH]c(=O)c34)nc2)CC1` [I-278, 2-[4-(3-azabicyclo [2.2.2]octane-3-carbonyl)-2-fluoro-phenyl]-4-[[5-(4-methyl-piperazin-1-yl)-2-pyridyl]amino]-6H-1,6-naphthyridin 5-one] and `Cc1ccncc1-c1cc(Nc2ccc(N3CCC(O)CC3)cn2)c2c(=O)[nH]ccc2n1` [I-281, 4-[[5-(4-hydroxy-1-piperidyl)-2-pyridyl]amino]-2-(4-methyl-3-pyridyl)-6H-1,6-naphthyridin-5-one] cannot be ordered by pIC50: 6.00 to 7.00 for the first, ≥ 7.00 for the second.

`O=c1[nH]ccc2nc(-c3ccnc4[nH]ccc34)cc(Nc3ccc(N4CCC(O)CC4)cn3)c12` [I-282, 4-[[5-(4-hydroxy-1-piperidyl)-2-pyridyl]amino]-2-(1H-pyrrolo [2,3-b]pyridin-4-yl)-6H-1,6-naphthyridin-5-one] and `O=c1[nH]ccc2nc(-c3cnc4ccccn34)cc(Nc3ccc(N4CCC(O)CC4)cn3)c12` [I-284, 4-[[5-(4-hydroxy-1-piperidy)-2-pyridyl]amino]-2-imidazo[1,2-a]pyridin-3-yl-6H-1,6-naphthyridin-5-one] cannot be ordered by pIC50: < 6.00 for the first, < 6.00 for the second.
